Reference: patent US4540700A, “Treatment of diabetic complications with certain spiro-imidazolidine-diones” (Alcon Laboratories, Inc., priority 1984, dated 1985)
Read-outs that look alike come from different tables or passages of the source.

Tests used:
Type in all cases: biochemical
[1] = biological target: Rat Aldose Reductase (Rattus norvegicus, UniProt P07943); assay: Rat Aldose Reductase Inhibition; conditions: for inhibition at 100 µM: 10^-4, read-out: In vitro Aldose Reductase Inhibition; for inhibition at 10 µM: 10^-5, read-out: In vitro Aldose Reductase Inhibition; for inhibition at 1 µM: 10^-6, read-out: In vitro Aldose Reductase Inhibition; for inhibition at 0.1 µM: 10^-7, read-out: In vitro Aldose Reductase Inhibition; for inhibition at 0.01 µM: 10^-8, read-out: In vitro Aldose Reductase Inhibition
Source text: Biophysical Chemistry, 8 (1978) 81-85; P. F. Kador, L. O. Merola and J. H
Kinoshita Documenta Ophthamologica, 18 (1979) 117.

[2] = biological target: Human Aldose Reductase (Homo sapiens, UniProt P15121); assay: Human Aldose Reductase Inhibition
[3] = test system: aldose reductase; assay: aldose reductase inhibition of spiro-xanthene-imidazolidines (in words)
[4] = read-out: In vitro Aldose Reductase Inhibition
[5] = 10^-4, human, read-out: In vitro Aldose Reductase Inhibition
[6] = 10^-5, human, read-out: In vitro Aldose Reductase Inhibition
[7] = 10^-6, human, read-out: In vitro Aldose Reductase Inhibition

Structure (SMILES): O=C1NC(=O)C2(N1)c1ccccc1-c1cccc(F)c12 (racemic) [S, dl-Spiro-[1-fluorofluoren-9,4'-imidazolidine]-2',5'-dione]
- IC50 [1]: 590 nM

Structure (SMILES): O=C1NC(=O)C2(N1)c1ccccc1-c1ccccc12 [A, Spiro-(fluoren-9,4'-imidazolidine)-2',5'-dione]
- IC50 ([2]; human): 1200 nM
- inhibition at 0.1 µM [2, 4]: 13%
- inhibition at 1 µM [2, 4]: 49%
- inhibition at 10 µM [2, 4]: 84%
- inhibition at 100 µM [2, 4]: 89%

Structure (SMILES): CS(=O)(=O)c1ccc2c(c1)C1(NC(=O)NC1=O)c1ccccc1-2 (racemic) [R, dl-Spiro-(2-methylsulfonylfluoren-9,4'-imidazolidine)-2',5'-dione]
- IC50 [1]: 5000 nM

Structure (SMILES): O=C1NC(=O)C2(N1)c1ccccc1-c1c(F)cccc12 (racemic) [U, dl-Spiro-[4-fluorofluoren-9,4'-imidazolidine]-2',5'-dione]
- IC50 [1]: 460 nM

Structure (SMILES): O=C1NC(=O)C2(N1)c1ccccc1-c1ccc(Br)cc12 (racemic) [E, dl-Spiro-[2-bromofluoren-9,4'-imidazolidine]-2', 5'-dione]
- inhibition at 100 µM [1]: 100%
- inhibition at 10 µM [1]: 82%
- inhibition at 1 µM [1]: 62%
- inhibition at 0.1 µM [1]: 33%
- inhibition at 0.01 µM [1]: 8%

Structure (SMILES): O=C1NC(=O)C2(N1)c1cc([N+](=O)[O-])ccc1-c1ccc([N+](=O)[O-])cc12 [Compound D, Spiro [2,7-dinitrofluoren-9,4'-imidazolidine]-2',5'-dione]
- inhibition at 1 µM [2, 4]: 20%
- inhibition at 10 µM [2, 4]: 76%
- inhibition at 100 µM [2, 4]: 100%

Structure (SMILES): O=C1NC(=O)C2(N1)c1ccccc1-c1ccc(I)cc12 (racemic) [J, dl-Spiro-[2-iodofluoren-9,4'-imidazolidine]-2',5'-dione]
- inhibition at 100 µM [2, 5]: 94%
- inhibition at 10 µM [2, 6]: 88%
- inhibition at 1 µM [2, 7]: 77%
- inhibition at 0.1 µM ([2]; 10^-7, human, read-out: In vitro Aldose Reductase Inhibition): 39%
- inhibition at 0.01 µM ([2]; 10^-8, human, read-out: In vitro Aldose Reductase Inhibition): 0%

Structure (SMILES): Nc1ccc2c(c1)C1(NC(=O)NC1=O)c1ccccc1-2 (racemic) [H, dl-Spiro-[2-aminofluoren-9,4'-imidazolidine]-2',5'-dione]
- inhibition at 100 µM [2, 5]: 43%
- inhibition at 10 µM [2, 6]: 31%
- inhibition at 1 µM [2, 7]: 0%

Structure (SMILES): O=C1NC(=O)C2(N1)c1cc(F)ccc1Oc1ccc(F)cc12 [spiro-(2,7-difluroxanthen-9,4'-imidazolidine)-2',5'-dione]
- activity as aldose reductase inhibitors relative to corresponding tetracyclic fluorene compounds [3]: unexpectedly less active

Structure (SMILES): Cc1cccc2c1C1(NC(=O)NC1=O)c1ccccc1-2 (racemic) [K, dl-Spiro-[1-methylfluoren-9,4'-imidazolidine]-2',5'-dione]
- inhibition at 100 µM [1]: 96%
- inhibition at 10 µM [1]: 85%
- inhibition at 1 µM [1]: 47%
- inhibition at 0.1 µM [1]: 6%

Structure (SMILES): Nc1ccc2c(c1)C1(NC(=O)NC1=O)c1cc(N)ccc1-2 [I, Spiro-[2,7-diaminofluoren-9,4'-imidazolidine]-2',5'-dione]
- inhibition at 100 µM [2, 5]: 50%
- inhibition at 10 µM [2, 6]: 25%
- inhibition at 1 µM [2, 7]: 10%

Structure (SMILES): O=C1NC(=O)C2(CCOc3ccc(F)cc32)N1 (stereo not shown) [Sarges Resolved, dSpiro-(6-fluorochroman-4,4imidazolidine)-2',5dione, reference compound]
- activity against human aldose reductase as compared to rat aldose reductase ([2]; human vs rat): one fourth

Structure (SMILES): C[S+]([O-])c1ccc2c(c1)C1(NC(=O)NC1=O)c1ccccc1-2 (racemic) [Q, Spiro-[2-(R,S)-methylsulfinylfluoren-9, (R,S)-4'-imidazolidine]-2',5'-dione]
- IC50 [1]: 1700 nM

Structure (SMILES): Nc1cccc2c1-c1ccccc1C21NC(=O)NC1=O (racemic) [G, dl-Spiro-[4-aminofluoren-9,4'-imidazolidine]-2',5'-dione]
- inhibition at 100 µM [2, 5]: 50%
- inhibition at 10 µM [2, 6]: 28%
- inhibition at 1 µM [2, 7]: 20%

Structure (SMILES): CSc1ccc2c(c1)C1(NC(=O)NC1=O)c1ccccc1-2 (racemic) [P, dl-Spiro-[2-methylthiofluoren-9,4'-imidazolidine]-2',5'-dione]
- IC50 [1]: 420 nM

Structure (SMILES): O=C1NC(=O)C2(N1)c1cc(Br)ccc1-c1ccc(Br)cc12 [F, Spiro-[2,7-dibromofluoren-9,4'-imidazolidine]-2',5'-dione]
- inhibition at 10 µM [1]: 94%
- inhibition at 1 µM [1]: 76%
- inhibition at 0.1 µM [1]: 55%
- inhibition at 0.01 µM [1]: 12%

Structure (SMILES): O=C1NC(=O)C2(N1)c1ccccc1-c1ccc(C(=O)O)cc12 (racemic) [N, dl-Spiro-[2-carboxyfluoren-9,4'-imidazolidine]-2',5'-dione]
- inhibition at 100 µM [1]: 89%
- inhibition at 10 µM [1]: 54%
- inhibition at 1 µM [1]: 0%

Structure (SMILES): O=C1NC(=O)C2(N1)c1ccccc1-c1ccc([N+](=O)[O-])cc12 (racemic) [C, dl-Spiro-[2-nitrofluoren-9,4'-imidazolidine]-2',5'-dione]
- inhibition at 100 µM [2, 5]: 65%
- inhibition at 10 µM [2, 6]: 20%
- inhibition at 1 µM [2, 7]: 8%

Structure (SMILES): O=C1NC(=O)C2(N1)c1ccccc1Oc1ccccc12 [spiro-(xanthen-9,4'-imidazolidine)-2',5'-dione]
- activity as aldose reductase inhibitors relative to corresponding tetracyclic fluorene compounds [3]: unexpectedly less active

Structure (SMILES): O=C1NC(=O)C2(N1)c1cc(Cl)ccc1-c1ccc(Cl)cc12 [Compound B, Spiro-[2,7-dichlorofluoren-9,4'-imidazolidine]-2',5'-dione]
- In vitro Aldose Reductase Inhibition ([2]; 10^-4, human): 65
- In vitro Aldose Reductase Inhibition ([2]; 10^-5, human): 30
- In vitro Aldose Reductase Inhibition ([2]; 10^-6, human): 12
